Test results as given in patent US12091425B2 (AMGEN INC., priority 2016, dated 2024).

The compounds below were run against T1, Mcl-1/Bim interaction, recombinant human Mcl-1 (171-327) (Homo sapiens, UniProt Q07820) (assay: Cell free Mcl-1: Bim Affinity Assay (Mcl-1 HTRF)). Conditions: cell free Mcl-1:Bim TR-FRET, recombinant human Mcl-1 (171-327).
T1 construct: made in house
Assay type: binding
In short: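 Biotin-Bim(51-76) peptide, TR-FRET readout, overnight incubation; IC50 from duplicate competition curves, 4-parameter fit.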

T1 sequence (Q07820 171-327): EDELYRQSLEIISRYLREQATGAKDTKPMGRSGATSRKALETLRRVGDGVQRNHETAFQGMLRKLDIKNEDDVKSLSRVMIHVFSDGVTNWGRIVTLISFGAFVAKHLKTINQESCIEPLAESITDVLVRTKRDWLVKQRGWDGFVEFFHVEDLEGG

Q: `O=C1NS(=O)(=O)CCCC[C@@H](O)[C@H](O)[C@@H]2CC[C@H]2CN2C[C@@]3(CCCc4cc(Cl)ccc43)COc3ccc1cc32` (single isomer, unassigned) [Example 853, (1S,3′R,6′R,7′R,8′R)-6-chloro-7′,8′-dihydroxy-3,4-dihydro-2H,15′H-spiro[naphthalene-1,22′-[20]oxa[13]thia[1,14]diazatetracyclo[14.7.2.0^3,6.0^19,24]pentacosa [16,18,24]trien]-15′-one 13′,13′-dioxide or (1S,3′R,6′R,7′S,8′S)-6-chloro-7′,8′-dihydroxy-3,4-dihydro-2H,15′H-spiro[naphthalene-1,22′-[20]oxa[13]thia[1,14]diazatetracyclo[14.7.2.0^3,6.0^19,24]pentacosa [16,18,24]trien]-15′-one 13′,13′-dioxide] was tested. Which IC50 did it give?
A: The IC50 was 11.7 nM.

Q: Which IC50 does the source give for `O=C1NS(=O)(=O)CCCCC(O)C(O)C2CCC2CN2CC3(CCCc4cc(Cl)ccc43)COc3ccc1cc32` (single isomer, unassigned) [Example 857, (1S,3′R,6′R,7′R,8′R)-6-chloro-7′,8′-dihydroxy-3,4-dihydro-2H,15′H-spiro[naphthalene-1,22′-[20]oxa[13]thia[1,14]diazatetracyclo[14.7.2.0^3,6.0^19,24]pentacosa [16,18,24]trien]-15′-one 13′,13′-dioxide or (1S,3′R,6′R,7′S,8′S)-6-chloro-7′,8′-dihydroxy-3,4-dihydro-2H,15′H-spiro[naphthalene-1,22′-[20]oxa[13]thia[1,14]diazatetracyclo[14.7.2.0^3,6.0^19,24]pentacosa [16,18,24]trien]-15′-one 13′,13′-dioxide] here?
A: Its IC50 is 8.46 nM.

Q: `CC1COCCC(O)C2CCC2CN2CC3(CCCc4cc(Cl)ccc43)COc3ccc(cc32)C(=O)NS1(=O)=O` (single isomer, unassigned) [Example 861] was tested. Which IC50 did it give?
A: The IC50 was 1.59 nM.

Q: How did the IC50 turn out when `O=C1NS(=O)(=O)CCOC[C@@H](O)[C@@H]2CC[C@H]2CN2C[C@@]3(CCCc4cc(Cl)ccc43)COc3ccc1cc32` (single isomer, unassigned) [Example 866, (3R,6R,7S,21S)-6′-chloro-7-hydroxy-3′,4′-dihydro-2′H,14H-spiro[9,19-dioxa-12-thia-1,13-diazatetracyclo[13.7.2.0^3,6.0^18,23]tetracosa-15,17,23-triene-21,1′-naphthalen]-14-one 12,12-dioxide or (3R,6R,7R,21S)-6′-chloro-7-hydroxy-3′,4′-dihydro-2′H,14H-spiro[9,19-dioxa-12-thia-1,13-diazatetracyclo[13.7.2.0^3,6.0^18,23]tetracosa-15,17,23-triene-21,1′-naphthalen]-14-one 12,12-dioxide] was run?
A: The IC50 was 9.53 nM.

Q: How did the IC50 turn out when `O=C1NS(=O)(=O)CCCC[C@H](O)C[C@@H]2CC[C@H]2CN2C[C@@]3(CCCc4cc(Cl)ccc43)COc3ccc1cc32` (single isomer, unassigned) [Example 867, (1S,3′R,6′S,8′S)-6-chloro-8′-hydroxy-3,4-dihydro-2H,15′H-spiro[naphthalene-1,22′-[20]oxa[13]thia[1,14]diazatetracyclo[14.7.2.0^3,6.0^19,24]pentacosa[16,18,24]trien]-15′-one 13′,13′-dioxide or (1S,3′R,6′S,8′R)-6-chloro-8′-hydroxy-3,4-dihydro-2H,15′H-spiro[naphthalene-1,22′-[20]oxa[13]thia[1,14]diazatetracyclo[14.7.2.0^3,6.0^19,24]pentacosa[16,18,24]trien]-15′-one 13′,13′-dioxide] was run?
A: The IC50 was 6.81 nM.

Q: For `O=C1NS(=O)(=O)CCCOC[C@H](O)[C@@H]2CC[C@H]2CN2C[C@@]3(CCCc4cc(Cl)ccc43)COc3ccc1cc32` (single isomer, unassigned) [Example 870, (3R,6R,7R,22S)-6′-chloro-7-hydroxy-3′,4′-dihydro-2′H,15H-spiro[9,20-dioxa-13-thia-1,14-diazatetracyclo[14.7.2.0^3,6.0^19,24]pentacosa-16,18,24-triene-22,1′-naphthalen]-15-one 13,13-dioxide or (3R,6R,7S,22S)-6′-chloro-7-hydroxy-3′,4′-dihydro-2′H,15H-spiro[9,20-dioxa-13-thia-1,14-diazatetra-cyclo[14.7.2.0^3,6.0^19,24]pentacosa-16,18,24-triene-22,1′-naphthalen]-15-one 13,13-dioxide], which IC50 is on record?
A: Its IC50 is 8.26 nM.

Q: `C[C@@H]1C[C@@H]2C[C@@H](O1)[C@@H]1CC[C@H]1CN1C[C@@]3(CCCc4cc(Cl)ccc43)COc3ccc(cc31)C(=O)NS(=O)(=O)CCO2` (single isomer, unassigned) [Example 876] was tested. Which IC50 did it give?
A: Its IC50 is 18.3 nM.

Q: With `C=C1[C@@H](O)[C@H](O)CC[C@@H](CC)S(=O)(=O)NC(=O)c2ccc3c(c2)N(C[C@@H]2CC[C@@H]12)C[C@@]1(CCCc2cc(Cl)ccc21)CO3` (single isomer, unassigned) [Example 877] as the compound, how does the IC50 read?
A: The IC50 was 26.2 nM.

Q: `O=C1NS(=O)(=O)CCCCC(O)CC2CCC2CN2CC3(CCCc4cc(Cl)ccc43)COc3ccc1cc32` (single isomer, unassigned) [Example 881, (1S,3′R,6′S,8′S)-6-chloro-8′-hydroxy-3,4-dihydro-2H,15′H-spiro[naphthalene-1,22′-[20]oxa[13]thia[1,14]diazatetracyclo[14.7.2.0^3,6.0^19,24]pentacosa[16,18,24]trien]-15′-one 13′,13′-dioxide or (1S,3′R,6′S,8′R)-6-chloro-8′-hydroxy-3,4-dihydro-2H,15′H-spiro[naphthalene-1,22′-[20]oxa[13]thia[1,14]diazatetracyclo[14.7.2.0^3,6.0^19,24]pentacosa[16,18,24]trien]-15′-one 13′,13′-dioxide] was tested. Which IC50 did it give?
A: Its IC50 is 22.2 nM.

Q: Which IC50 does the source give for `O=C1NS(=O)(=O)CC/C=C\[C@@H](O)C[C@@H]2CC[C@H]2CN2C[C@@]3(CCCc4cc(Cl)ccc43)COc3ccc1cc32` (single isomer, unassigned) [Example 883, (1S,3′R,6′S,8′S,9′Z)-6-chloro-8′-hydroxy-3,4-dihydro-2H,15′H-spiro[naphthalene-1,22′[20]oxa[13]thia[1,14]diazatetracyclo[14.7.2.0^3,6.0^19,24]pentacosa[9,16,18,24]tetraen]-15′-one 13′,13′-dioxide or (1S,3′R,6′S,8′R,9′Z)-6-chloro-8′-hydroxy-3,4-dihydro-2H,15′H-spiro[naphthalene-1,22′-[20]oxa[13]thia[1,14]diazatetracyclo[14.7.2.0^3,6.0^19,24]pentacosa [9,16,18,24]tetraen]-15′-one 13′,13′-dioxide] here?
A: The IC50 was 48.5 nM.

Q: With `O=C1NS(=O)(=O)CC/C=C/[C@H](O)C[C@@H]2CC[C@H]2CN2C[C@@]3(CCCc4cc(Cl)ccc43)COc3ccc1cc32` (single isomer, unassigned) [Example 884, (1S,3′R,6′S,8′R,9′E)-6-chloro-8′-hydroxy-3,4-dihydro-2H,15′H-spiro[naphthalene-1,22′-[20]oxa[13]thia[1,14]diazatetracyclo[14.7.2.0^3,6.0^19,24]pentacosa [9,16,18,24]tetraen]-15′-one 13′,13′-dioxide or (1S,3′R,6′S,8′S,9′E)-6-chloro-8′-hydroxy-3,4-dihydro-2H,15′H-spiro[naphthalene-1,22′-[20]oxa[13]thia[1,14]diazatetracyclo[14.7.2.0^3,6.0^19,24]pentacosa [9,16,18,24]tetraen]-15′-one 13′,13′-dioxide] as the compound, how does the IC50 read?
A: The IC50 was 1.29 nM.
